What all share (assay): NCI anticancer screen, dose series, 48 h
Assay [1] concerns A549 NSCLC.
For assay [2], the system named is HCT-116 colon.
Assay [3] has as its system M14 melanoma.
Assay [4] concerns MALME-3M melanoma.
For assay [5], the system named is NCI-H226 lung.
For assay [6], the system named is SR leukemia.
Assay [7] deals with TK-10 renal.
The subject of assay [8] is UACC-257 melanoma.
Assay [9] relates to KM12 colon.

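The compound was tested at five concentrations on cells cultured in 96-well plates, with a 48-hour exposure period. The concentration for 50% growth inhibition is given as GI50. TGI marks complete inhibition of growth.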

`CCCCCCCCOCC(COC(=O)CCCCCCC)OC(=O)CCCCCCC` (centres undefined): the TGI in assay [1], in assay [2], in assay [3], in assay [4], in assay [5] and in assay [6] was greater than 100 µM in each case. Further, the TGI in [7] and in assay [8] was greater than 100 µM each time.

Turning to `CCOC(=O)/C(=C/c1ccccn1)C(=O)c1ccccc1`, the TGI in assay [1] is 44.5 µM; in [2], 27.3 µM; in assay [9] it was 26.4 µM; in assay [3], 29.3 µM; in assay [4] it was 27.3 µM; in assay [5], 31.8 µM. For the same compound, the TGI was determined as 14.2 µM in assay [6], 32.3 µM in assay [7] and 27.9 µM in assay [8].

As for `COCCOC1=C(Cl)C(=O)c2ccccc2C1=O`, the GI50 in [1] is 4.33 µM; in [2], 1.82 µM; in assay [9] it was 2.11 µM; in assay [4], 3.08 µM; in assay [5] it was 4.18 µM; in [6] it was 3.17 µM. The GI50 in assay [7] was 2.83 µM; in assay [8], 2 µM. In addition, the TGI in assay [1] amounted to 21.8 µM; in assay [2], 3.58 µM; in assay [9], 4.23 µM; in assay [4], 13.4 µM; in assay [5], 15.8 µM; in [6] it was 9.48 µM. In addition, the TGI in assay [7] was determined as 10.8 µM; in [8], 4.36 µM.

As to `CCc1cccc(CC)c1NC(=O)/C(Cl)=C(/Cl)C(=O)O`, the TGI in [1] was greater than 89.6 µM; in [2] it was 50.3 µM; in assay [9], greater than 100 µM; in assay [3], 35.9 µM; in [4], 36.7 µM; in [5] it was greater than 100 µM. In addition, the TGI in assay [6] was greater than 73.6 µM; in assay [7], 50.2 µM; in assay [8], 48.3 µM.

Consider `NC1=NC(Cn2nc(-c3ccccc3)c3ccccc3c2=O)=NNC(=O)N1`, for which the TGI in assay [1], in [2], in [9], in assay [3], in assay [4] and in assay [5] was greater than 100 µM each time. In addition, the TGI in [6], in assay [7] and in assay [8] was greater than 100 µM each time.

Regarding `O=NN(CCCl)C(=O)NC1CCC(CC(=O)O)CC1` (centres undefined), the TGI in assay [1], in assay [2], in assay [9], in assay [3], in assay [4] and in assay [5] was greater than 100 µM in each case. In addition, the TGI in assay [6], in [7] and in [8] was greater than 100 µM each time.

In the case of `COc1ccc(-c2c(C3=NCCCN3)nnn2-c2ccccc2)cc1`, the TGI in assay [1], in assay [2], in assay [9], in assay [3], in assay [4] and in assay [5] was greater than 100 µM throughout. The TGI in assay [6], in [7] and in [8] was greater than 100 µM throughout.

`CC(C)Cc1ccc(C(C)/C=C2\CCC(CN(C)C)C2=O)cc1` (centres undefined): the TGI is 69.5 µM in [1]; 23.1 µM in assay [2]; 18.2 µM in assay [9]; 28.5 µM in assay [3]; 32.2 µM in [4]; 46.4 µM in assay [5]. Also, the figures for the TGI in assay [6], in assay [7] and in assay [8] were 9.41 µM, 18.9 µM and 30 µM, respectively.

In the case of `COc1cc(/C=C/c2csnn2)cc(OC)c1OC`, the TGI in [1], in assay [2], in assay [9], in [3], in [4] and in [5] was greater than 100 µM each time. Besides, the TGI in assay [6], in assay [7] and in assay [8] was greater than 100 µM throughout.

Turning to `OC(c1ccccc1Br)(c1ccccc1Br)C(F)(F)F`, the TGI in assay [1] was greater than 100 µM; in assay [2] it was 39.4 µM; in assay [9], 30.9 µM; in assay [3], greater than 100 µM; in [4] it was 52.3 µM; in [5] it was 26.5 µM. Also, the figures for the TGI in [6], in assay [7] and in assay [8] were 45.9 µM, greater than 100 µM and 72.9 µM, respectively.

`COC(=O)C(C(=O)C(=O)Nc1c(Cl)cc([N+](=O)[O-])cc1Cl)c1csc(-n2nc(C3=CCCCC3)cc2-c2ccccc2)n1` (centres undefined): the TGI in [1], in assay [2], in [9], in assay [3], in assay [4] and in assay [5] was greater than 100 µM in each case. The TGI is 78 µM in [6], greater than 100 µM in assay [7] and greater than 100 µM in assay [8].

As for `O=C1N[C@@H]2CCCC[C@@H]2C12CCCCC2`, the TGI in assay [1], in assay [2], in assay [9], in [3], in assay [4] and in assay [5] was greater than 100 µM in each case. In addition, the TGI in assay [6], in assay [7] and in assay [8] was greater than 100 µM throughout.

Values taken from PubChem BioAssay (NCI).
